Measurements taken from patent US20250042900A1 (priority 2022, published 2025).
Where a name gives a salt, the structure may show the parent alone. Read-outs that look alike come from different tables or passages of the source.

Experiments:
[1] = molecular target: T1, Histamine Receptor H2 (HRH2) (Homo sapiens, UniProt P25021); assay: cAMP secondary messenger assay, antagonist format; type: cell-based; conditions: read-out: IC50 (μM) Antag./Blocker/Inhibitor
[2] = molecular target: T2, Cholecystokinin Receptor A (CCKAR) (Homo sapiens, UniProt P32238); assay: Calcium flux secondary messenger assay, antagonist format; type: cell-based; conditions: read-out: IC50 (μM) Antag./Blocker/Inhibitor
[3] = molecular target: T2, Cholecystokinin Receptor A (CCKAR); assay: Calcium flux secondary messenger assay, agonist format; type: cell-based; conditions: read-out: EC50 (μM) Agonist/Opener
[4] = molecular target: T1, Histamine Receptor H2 (HRH2); assay: cAMP secondary messenger assay, agonist format; type: cell-based; conditions: read-out: EC50 (μM) Agonist/Opener
[5] = tested on: Gamma-aminobutyric acid Receptor A (GABAA); assay: Ion channel assay, opener format; type: cell-based; conditions: read-out: EC50 (μM) Agonist/Opener
[6] = molecular target: T3, 5-Hydroxytryptamine (Serotonin) Receptor 1A (5-HT1A) (Homo sapiens, UniProt P08908); assay: cAMP secondary messenger assay, agonist format; type: cell-based; conditions: read-out: EC50 (μM) Agonist/Opener
T3 construct: host or cells: cAMP Hunter cell line

[7] = molecular target: T4, Muscarinic acetylcholine Receptor M2 (CHRM2) (Homo sapiens, UniProt P08172); assay: cAMP secondary messenger assay, agonist format; type: cell-based; conditions: read-out: EC50 (μM) Agonist/Opener
[8] = molecular target: Adrenergic Receptor β1 (ADRB1) (Homo sapiens, UniProt P08588); assay: cAMP secondary messenger assay, agonist format; type: cell-based; conditions: read-out: EC50 (μM) Agonist/Opener
[9] = molecular target: hERG (Homo sapiens, UniProt Q12809); assay: Ion channel assay, blocker format; type: cell-based; conditions: read-out: IC50 (μM) Antag./Blocker/Inhibitor
[10] = molecular target: Opioid Receptor Mu (OPRM1) (Homo sapiens, UniProt P35372); assay: cell-based; conditions: cAMP, antagonist, read-out: IC50 (μM) Antag./Blocker/Inhibitor
[11] = molecular target: T5, 5-Hydroxytryptamine (Serotonin) Receptor 3A (5-HT3A) (Homo sapiens, UniProt P46098); assay: Ion channel assay, opener format; type: cell-based; conditions: read-out: EC50 (μM) Agonist/Opener
T5 construct: expressed in transfected cells

[12] = molecular target: T6, COX1 (Homo sapiens, UniProt P23219); assay: Enzymatic assay COX1; type: biochemical; conditions: inhibitor, read-out: IC50 (μM) Antag./Blocker/Inhibitor
T6 construct: purchased BPS Bioscience

[13] = molecular target: Histamine Receptor H1 (HRH1) (Homo sapiens, UniProt P35367); assay: Calcium flux secondary messenger assay, agonist format; type: cell-based; conditions: read-out: EC50 (μM) Agonist/Opener
[14] = molecular target: Cannabinoid Receptor 1 (CNR1) (Homo sapiens, UniProt P21554); assay: cAMP secondary messenger assay, agonist format; type: cell-based; conditions: read-out: EC50 (μM) Agonist/Opener
[15] = molecular target: Nuclear Hormone Glucocorticoid Receptor (GR) (Homo sapiens, UniProt P04150); assay: NHR Protein Interaction assay, antagonist format; type: cell-based; conditions: read-out: IC50 (μM) Antag./Blocker/Inhibitor
[16] = molecular target: T7, PDE3A (Homo sapiens, UniProt Q14432); assay: Enzymatic assay PDE3A; type: biochemical; conditions: inhibitor, read-out: IC50 (μM) Antag./Blocker/Inhibitor
T7 construct: purchased Signal Chem

[17] = molecular target: T8, MAOA (Homo sapiens, UniProt P21397); assay: Enzymatic assay MAOA; type: biochemical; conditions: inhibitor, read-out: IC50 (μM) Antag./Blocker/Inhibitor
T8 construct: purchased Sigma

[18] = molecular target: T9, N-methyl-D-aspartate (NMDA) Glutamate Receptor 1A/2B (NMDAR (1A/2B)) (Homo sapiens, UniProt Q05586+Q13224); assay: Ion channel assay, blocker format; type: cell-based; conditions: read-out: IC50 (μM) Antag./Blocker/Inhibitor
[19] = molecular target: T9, N-methyl-D-aspartate (NMDA) Glutamate Receptor 1A/2B (NMDAR (1A/2B)); assay: Ion channel assay, opener format; type: cell-based; conditions: read-out: EC50 (μM) Agonist/Opener
[20] = molecular target: Nicotinic acetylcholine Receptor α4 β2 (nAChR(a4/b2)) (Homo sapiens, UniProt P17787+P43681); assay: Ion channel assay, opener format; type: cell-based; conditions: read-out: EC50 (μM) Agonist/Opener
[21] = molecular target: KvLQT1/minK (Homo sapiens, UniProt P51787); assay: Ion channel assay, opener format; type: cell-based; conditions: read-out: EC50 (μM) Agonist/Opener
[22] = molecular target: T5, 5-Hydroxytryptamine (Serotonin) Receptor 3A (5-HT3A); assay: Ion channel assay, blocker format; type: cell-based; conditions: read-out: IC50 (μM) Antag./Blocker/Inhibitor
[23] = molecular target: T10, Muscarinic acetylcholine Receptor M3 (CHRM3) (Homo sapiens, UniProt P20309); assay: Calcium flux secondary messenger assay, agonist format; type: cell-based; conditions: read-out: EC50 (μM) Agonist/Opener
[24] = molecular target: Dopamine Receptor D2 (DRD2S) (Homo sapiens, UniProt P14416); assay: cAMP secondary messenger assay, antagonist format; type: cell-based; conditions: read-out: IC50 (μM) Antag./Blocker/Inhibitor
[25] = tested on: Gamma-aminobutyric acid Receptor A (GABAA); assay: Ion channel assay, blocker format; type: cell-based; conditions: read-out: IC50 (μM) Antag./Blocker/Inhibitor
[26] = molecular target: T11, AChE (Homo sapiens, UniProt P22303); assay: Enzymatic assay AChE; type: biochemical; conditions: inhibitor, read-out: IC50 (μM) Antag./Blocker/Inhibitor
T11 construct: purchased R&D Systems

[27] = molecular target: T4, Muscarinic acetylcholine Receptor M2 (CHRM2); assay: cAMP secondary messenger assay, antagonist format; type: cell-based; conditions: read-out: IC50 (μM) Antag./Blocker/Inhibitor
[28] = molecular target: Adenosine Receptor A2A (ADORA2A) (Homo sapiens, UniProt P29274); assay: Calcium flux secondary messenger assay, antagonist format; type: cell-based; conditions: read-out: IC50 (μM) Antag./Blocker/Inhibitor
[29] = molecular target: T12, Vascular endothelial growth factor receptor 2 (KDR tyrosine kinase) (VEGFR2) (Homo sapiens, UniProt P35968); assay: biochemical; conditions: Binding, inhibitor, read-out: IC50 (μM) Antag./Blocker/Inhibitor
T12 construct: T7 phage fusion (most assays) or DNA tag for qPCR (the remaining kinases); made in house; host or cells: E. coli (BL21-derived, T7 phage display) or HEK-293

[30] = molecular target: T10, Muscarinic acetylcholine Receptor M3 (CHRM3); assay: cell-based; conditions: Calcium Flux, antagonist, read-out: IC50 (μM) Antag./Blocker/Inhibitor
[31] = molecular target: HTR2A (5-hydroxytryptamine (serotonin) receptor 2A) (Homo sapiens, UniProt P28223); assay: In vitro activity at 5-HT2AR, agonist mode (calcium flux secondary messenger assay); type: cell-based; conditions: for EC50: agonist
Chain of HTR2A (5-hydroxytryptamine (serotonin) receptor 2A) (P28223 whole entry): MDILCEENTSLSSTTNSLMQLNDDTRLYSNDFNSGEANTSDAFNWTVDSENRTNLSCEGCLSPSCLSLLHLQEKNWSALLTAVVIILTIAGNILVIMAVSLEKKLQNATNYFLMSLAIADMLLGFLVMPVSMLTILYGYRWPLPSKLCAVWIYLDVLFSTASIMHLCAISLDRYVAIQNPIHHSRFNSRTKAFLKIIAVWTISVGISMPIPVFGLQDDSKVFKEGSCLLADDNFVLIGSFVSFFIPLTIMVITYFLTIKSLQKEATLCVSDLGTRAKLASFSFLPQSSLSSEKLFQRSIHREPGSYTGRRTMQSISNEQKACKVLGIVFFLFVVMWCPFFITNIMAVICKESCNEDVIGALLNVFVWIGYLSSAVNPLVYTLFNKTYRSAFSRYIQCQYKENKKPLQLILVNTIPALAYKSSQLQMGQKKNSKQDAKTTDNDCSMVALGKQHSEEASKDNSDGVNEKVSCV

T5 sequence (P46098 24-478): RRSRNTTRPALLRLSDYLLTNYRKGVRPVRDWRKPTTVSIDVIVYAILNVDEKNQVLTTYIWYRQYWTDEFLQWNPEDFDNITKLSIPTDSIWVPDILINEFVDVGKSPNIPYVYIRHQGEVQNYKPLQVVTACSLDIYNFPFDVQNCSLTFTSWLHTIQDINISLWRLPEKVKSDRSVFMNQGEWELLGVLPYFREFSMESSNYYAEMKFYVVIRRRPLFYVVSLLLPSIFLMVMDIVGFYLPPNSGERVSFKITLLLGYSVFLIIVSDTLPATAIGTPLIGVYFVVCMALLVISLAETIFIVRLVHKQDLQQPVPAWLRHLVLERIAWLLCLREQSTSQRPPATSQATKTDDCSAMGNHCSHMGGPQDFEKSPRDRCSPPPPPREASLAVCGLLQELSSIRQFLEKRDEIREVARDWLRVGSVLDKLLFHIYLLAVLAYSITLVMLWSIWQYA
T10 sequence (P20309 whole entry): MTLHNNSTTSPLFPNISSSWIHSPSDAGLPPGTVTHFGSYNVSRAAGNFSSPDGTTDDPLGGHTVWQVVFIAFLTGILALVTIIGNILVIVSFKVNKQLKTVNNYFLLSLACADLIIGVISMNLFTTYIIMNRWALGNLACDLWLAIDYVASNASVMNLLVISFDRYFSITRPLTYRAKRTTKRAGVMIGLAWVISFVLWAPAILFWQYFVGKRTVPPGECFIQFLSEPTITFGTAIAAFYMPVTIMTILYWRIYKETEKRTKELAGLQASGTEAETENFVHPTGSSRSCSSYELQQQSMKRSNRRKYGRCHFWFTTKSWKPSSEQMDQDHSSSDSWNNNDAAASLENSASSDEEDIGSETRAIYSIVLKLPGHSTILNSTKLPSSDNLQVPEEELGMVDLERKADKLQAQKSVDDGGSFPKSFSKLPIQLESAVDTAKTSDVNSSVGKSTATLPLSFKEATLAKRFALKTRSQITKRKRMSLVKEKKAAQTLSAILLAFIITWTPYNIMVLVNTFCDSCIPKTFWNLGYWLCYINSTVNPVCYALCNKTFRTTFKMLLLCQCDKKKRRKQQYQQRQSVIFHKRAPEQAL
T2 sequence (P32238 whole entry): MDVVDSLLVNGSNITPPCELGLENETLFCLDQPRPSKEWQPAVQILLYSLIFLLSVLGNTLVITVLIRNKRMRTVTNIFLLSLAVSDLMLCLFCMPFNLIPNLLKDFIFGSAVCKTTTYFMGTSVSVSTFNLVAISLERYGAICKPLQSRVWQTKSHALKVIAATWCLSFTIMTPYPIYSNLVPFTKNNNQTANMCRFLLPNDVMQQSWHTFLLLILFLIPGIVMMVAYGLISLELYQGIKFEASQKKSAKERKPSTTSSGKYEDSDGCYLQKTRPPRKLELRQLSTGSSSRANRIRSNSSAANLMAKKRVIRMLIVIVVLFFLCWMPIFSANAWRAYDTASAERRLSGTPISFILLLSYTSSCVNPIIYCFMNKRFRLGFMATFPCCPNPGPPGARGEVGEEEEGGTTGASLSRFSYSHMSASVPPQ
T4 sequence (P08172 whole entry): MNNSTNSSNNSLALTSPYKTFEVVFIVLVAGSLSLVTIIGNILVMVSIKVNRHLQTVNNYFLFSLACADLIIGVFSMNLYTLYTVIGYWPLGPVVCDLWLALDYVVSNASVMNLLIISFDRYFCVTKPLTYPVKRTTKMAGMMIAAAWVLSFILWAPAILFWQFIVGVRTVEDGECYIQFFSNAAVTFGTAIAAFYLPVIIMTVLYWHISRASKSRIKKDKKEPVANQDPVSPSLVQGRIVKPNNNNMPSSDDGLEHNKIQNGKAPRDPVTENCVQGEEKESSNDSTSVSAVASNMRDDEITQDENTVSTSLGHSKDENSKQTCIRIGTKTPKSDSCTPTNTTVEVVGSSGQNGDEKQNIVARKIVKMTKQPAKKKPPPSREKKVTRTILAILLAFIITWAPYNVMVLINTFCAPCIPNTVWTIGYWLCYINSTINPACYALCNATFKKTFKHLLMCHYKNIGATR
T1 sequence (P25021 whole entry): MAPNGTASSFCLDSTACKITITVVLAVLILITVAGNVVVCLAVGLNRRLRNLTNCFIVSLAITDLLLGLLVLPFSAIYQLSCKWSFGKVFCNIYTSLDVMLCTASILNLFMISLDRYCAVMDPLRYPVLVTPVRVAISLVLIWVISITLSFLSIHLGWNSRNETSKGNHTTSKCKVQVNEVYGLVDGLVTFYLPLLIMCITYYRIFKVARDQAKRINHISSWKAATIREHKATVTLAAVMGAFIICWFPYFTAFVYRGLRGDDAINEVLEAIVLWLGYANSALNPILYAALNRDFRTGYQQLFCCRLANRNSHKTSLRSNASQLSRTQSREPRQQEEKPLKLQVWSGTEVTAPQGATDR
T9 sequence (Q13224 27-1484, other chains not shown): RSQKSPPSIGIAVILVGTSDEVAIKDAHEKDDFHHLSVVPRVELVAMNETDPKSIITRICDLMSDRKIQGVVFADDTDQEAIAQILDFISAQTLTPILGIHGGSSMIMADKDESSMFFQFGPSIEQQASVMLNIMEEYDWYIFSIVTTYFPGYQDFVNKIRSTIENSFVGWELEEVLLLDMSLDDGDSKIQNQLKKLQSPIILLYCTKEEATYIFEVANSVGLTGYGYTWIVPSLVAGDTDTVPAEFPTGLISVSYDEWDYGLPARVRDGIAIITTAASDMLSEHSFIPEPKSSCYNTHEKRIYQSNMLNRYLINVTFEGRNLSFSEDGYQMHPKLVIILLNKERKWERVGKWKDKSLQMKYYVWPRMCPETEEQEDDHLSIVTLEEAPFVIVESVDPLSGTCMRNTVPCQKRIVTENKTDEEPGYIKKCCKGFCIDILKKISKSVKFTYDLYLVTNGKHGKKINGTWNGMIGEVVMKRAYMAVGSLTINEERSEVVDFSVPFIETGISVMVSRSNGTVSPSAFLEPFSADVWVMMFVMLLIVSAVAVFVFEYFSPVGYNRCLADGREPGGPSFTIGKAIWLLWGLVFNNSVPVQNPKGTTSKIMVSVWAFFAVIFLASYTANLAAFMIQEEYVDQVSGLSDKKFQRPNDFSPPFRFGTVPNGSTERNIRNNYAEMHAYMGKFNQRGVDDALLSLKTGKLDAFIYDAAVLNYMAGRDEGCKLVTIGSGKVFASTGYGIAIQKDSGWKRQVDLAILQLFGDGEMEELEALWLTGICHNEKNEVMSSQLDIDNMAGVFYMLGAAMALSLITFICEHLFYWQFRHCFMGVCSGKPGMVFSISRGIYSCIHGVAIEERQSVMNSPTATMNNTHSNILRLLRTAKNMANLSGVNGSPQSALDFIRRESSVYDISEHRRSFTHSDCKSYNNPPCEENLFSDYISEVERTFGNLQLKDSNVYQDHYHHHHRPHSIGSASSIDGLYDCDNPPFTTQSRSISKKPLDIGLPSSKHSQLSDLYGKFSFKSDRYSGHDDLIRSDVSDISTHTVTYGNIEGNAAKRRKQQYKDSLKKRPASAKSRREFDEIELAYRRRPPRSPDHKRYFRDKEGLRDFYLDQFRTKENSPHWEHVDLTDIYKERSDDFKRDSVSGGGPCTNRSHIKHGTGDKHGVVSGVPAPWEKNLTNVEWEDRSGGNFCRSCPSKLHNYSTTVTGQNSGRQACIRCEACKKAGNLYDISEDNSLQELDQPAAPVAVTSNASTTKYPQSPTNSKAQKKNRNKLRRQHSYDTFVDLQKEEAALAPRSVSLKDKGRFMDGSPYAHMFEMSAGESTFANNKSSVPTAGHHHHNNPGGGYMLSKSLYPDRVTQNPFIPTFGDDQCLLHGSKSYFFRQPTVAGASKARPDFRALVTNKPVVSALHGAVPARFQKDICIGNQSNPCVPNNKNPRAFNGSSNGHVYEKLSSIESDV
T8 sequence (P21397 whole entry): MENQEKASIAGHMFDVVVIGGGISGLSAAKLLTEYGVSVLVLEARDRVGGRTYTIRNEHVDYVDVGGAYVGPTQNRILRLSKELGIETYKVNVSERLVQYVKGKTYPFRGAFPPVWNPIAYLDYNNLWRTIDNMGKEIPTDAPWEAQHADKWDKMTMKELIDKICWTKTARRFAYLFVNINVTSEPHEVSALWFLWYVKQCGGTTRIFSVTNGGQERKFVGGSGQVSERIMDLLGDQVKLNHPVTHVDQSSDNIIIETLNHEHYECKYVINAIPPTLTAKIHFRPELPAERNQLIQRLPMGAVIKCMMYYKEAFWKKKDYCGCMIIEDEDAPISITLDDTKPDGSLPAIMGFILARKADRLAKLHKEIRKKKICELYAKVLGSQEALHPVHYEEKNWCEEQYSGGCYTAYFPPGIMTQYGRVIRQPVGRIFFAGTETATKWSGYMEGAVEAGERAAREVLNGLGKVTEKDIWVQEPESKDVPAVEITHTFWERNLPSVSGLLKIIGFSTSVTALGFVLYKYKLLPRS

CN(C)CCc1ccn2ccccc12 [28-12 oxalate, 2-(indolizin-1-yl)-N, N-dimethylethan-1-amine oxalate]
IC50 [1]: > 30 µM | IC50 [2]: > 30 µM | EC50 [3]: > 30 µM | EC50 [4]: > 30 µM | EC50 [5]: > 30 µM | EC50 [6]: > 30 µM | EC50 [7]: > 30 µM | EC50 [8]: > 30 µM | IC50 [9]: > 30 µM | IC50 [10]: > 30 µM | EC50 [11]: > 30 µM | IC50 [12]: 5.13 µM | EC50 [13]: > 30 µM | EC50 [14]: > 30 µM | IC50 [15]: 17.1 µM | IC50 [16]: > 30 µM | IC50 [17]: 7.25 µM | IC50 [18]: > 30 µM | EC50 [19]: > 30 µM | EC50 [20]: > 30 µM | EC50 [21]: > 30 µM | IC50 [22]: 7.82 µM | EC50 [23]: > 30 µM | IC50 [24]: 22.3 µM | IC50 [25]: > 30 µM | IC50 [26]: > 30 µM | IC50 [27]: > 30 µM | IC50 [28]: > 30 µM | IC50 [29]: > 30 µM | IC50 [30]: > 30 µM | agonist effects at 5-HT2AR (in words) [31]: partial agonist effects | EC50 ([31]; 5-HT2A, Calcium Flux, read-out: EC50 (μM) Agonist/Opener): 0.052 µM | EC50 ([31]; ten concentrations up to 30 μM, estimated, read-out: EC50 at 5-HT2AR): ~0.0522 µM | Emax ([31]; of the response produced by 5-HT, read-out: maximum effect at 5-HT2AR): ~30%
